Read-outs that look alike come from different tables or passages of the source.
Columns and labels:
rat ventricular myocytes = test: Contractile function of individual ventricular myocytes (line scan camera edge detection, paced at 0.5 Hz); format: cell-based; conditions: for inhibition at 0.2 µM / activation at 0.2 µM: Rattus norvegicus, Ventricular myocyte, ISO at 0.2 μM
Protocol: Primary cultures of adult rat ventricular myocytes were prepared essentially according to previously described methods (Romano et al., Am. J. Physiol. 257:H1088 (1989)). Two male Sprague-Dawley rats (Charles River, Wilmington, Mass. or Harlan, Indianapolis, Ind.) were decapitated, and the hearts were rapidly excised and constant pressure (70 cm H2) and nonrecirculated) perfused for 10 minutes through the aortas with filtered (0.45 μm membrane filter) perfusing solution (NaCl, 118 mM; glucose, 10 mM; NaHCO3 25 mM; KCl, 4.69 mM; MgSO4 1.18 mM; and KH2 PO4, 1.18 mM; (pH 7.4)), to which […] was added, at 37° C. After equilibration, the hearts were constant pressure perfused with fresh physiological saline ("PS") containing no added Ca^2+ until spontaneous contractions ceased (i.e., ~30 seconds). The hearts were then perfused for 4-10 minutes in a nonrecirculating manner with PS containing 0.73 mg/ml collagenase, 0.16 mg/ml hyaluronidase, 1 mg/ml recrystallized bovine serum albumin ("BSA") and 48.4 μM Ca^2+ at a rate of 3-4 ml/min/heart. Ventricles, free of atria, were removed from the perfusion system, cut into 8 pieces and placed in a 50 ml Erlenmeyer flask with 5 ml of PS containing 0.73 mg/ml collagenase, 0.16 mg/ml hyaluronidase, 2.5 mg/ml BSA, and 50 μM Ca^2+ (incubation solution). The flask was gently shaken (40 cycles/min) in a reciprocating water bath with continuous gassing (95% O2, 5% CO2) for 7 minutes at 37° C. The incubation solution was aspirated and this shaking procedure was repeated with fresh incubation solution 3-5 times depending on the likelihood that the tissue was ready to dissociate. After the final incubation period, the solution was aspirated and replaced with 10 ml of fresh incubation solution. The flask was then shaken rapidly (120 cycles/min) for 10 minutes with gassing to dissociate the myocytes. The flask contents were filtered through a 250 μm nylon mesh into a 50 ml polypropylene centrifuge tube, to which 40 ml of PS containing 5.95 mg/ml BSA and 99.7 μm Ca^2+ (wash solution) was gradually added.
The myocytes were allowed to settle for 15 minutes, and the upper two thirds of the wash solution was aspirated. Upon the addition of 30-35 ml of wash solution, this settling step was repeated. The wash solution was aspirated and the myocyte pellet was resuspended in 10 ml of minimum essential medium ("MEM"). The myocyte suspension was allowed to settle for 5 minutes and then brought to a final volume of 22 ml with MEM. Two milliliters of the myocyte suspension was seeded onto each of 60 mm culture dishes containing 2 ml of MEM.
The contractile function of individual myocytes was assessed by dispersing 50-100 cells in a 506 μl myocyte chamber (11×23×2 mm deep). The chamber (FIG. 1) was continuously suffused (850 μl/min) with fresh suffusion solution ("SS") in mM: 136.4 NaCl, 4.7 KCl, 1.0 CaCl2, 10 hydroxyethylpiperzine-ethanesulfonicacid (HEPES), 1.0 NaHCO3, 1.2 MgSO4, 1.2 KH2 PO4, 10 glucose, 0.6 ascorbate, 1.0 pyruvate) at 20° C. The chamber was mounted on an inverted microscope stage and contained platinum wire electrodes for initiating myocyte contraction at 0.5 Hz (voltage 10% above threshold for 5 msec duration).
The image of the myocyte was projected via an inverted microscope at 300× onto a line scan camera (Fairchild, Model 1600R) containing a linear array (1×3456) of photodiodes. When aligned with the longitudinal axis of the cell the camera detected the movement of the 2 ends of the myocyte upon contraction (shortening and relengthening). […] When the myocyte was transilluminated, both ends of the cell were easily discriminated. Myocyte length and length change with respect to time for a single contraction was measured by determining the pixels in which the appropriate transitions between light and dark occurred. The line scan camera was calibrated with a stage micrometer scaled in 10 μm divisions. The signals from the camera were directed to a Hewlett Packard computer (Model Vectra RS/20C). […]

[1] = test system: ventricular myocyte membrane adenylyl cyclase; test: Adenylyl cyclase activity of ventricular myocyte membranes; format: biochemical, rat
Protocol: After a 3-4 hour incubation period, myocytes were harvested by placing the culture dishes on ice; aspirating and discarding the culture medium; scraping the attached cells into 1 ml of ice cold buffer (pH 7.4) containing 10 mM HEPES and 1 mM dithiothreitol (DTT); and transferring the mixture to a 40 ml centrifuge tube. The culture dishes were rinsed twice with buffer, and the rinses were added to the centrifuge tube. The myocytes were centrifuged at 45,000 x g for 45 minutes and the supernatant was discarded. The pellet was resuspended in 40 mM HEPES (pH 7.4) to yield 3.5-4 mg protein/ml and homogenized with a small clearance Dounce tissue grinder (8 strokes). The membranes were centrifugated as described above, resuspended (3-4 mg protein/ml) in 40 mM HEPES (pH 7.4), and assayed for adenylyl cyclase activity immediately or stored at -80° C. and assayed within 10 days.
The assay system used to measure adenylyl cyclase activity minimizes the formation of endogenous adenosine. The assay used was essentially as described by Romano et al. (supra). Myocyte membranes (15-25 μg protein) were incubated in 50 μl of a buffer containing 40 mM HEPES (pH 7.4), 5 mM MgCl2, 1 mM DTT, 5.5 mM KCl, 0.1 mM 2'-deoxy-cAMP (dcAMP), 0.1 mM 2'-deoxy ATP (dATP), 20 mM phosphoenolpyruvate, 2 units pyruvate kinase, 0.25 units adenosine deaminase, 1 mM ascorbic acid, 100 mM NaCl, 0.1 mM ethyleneglycol-bis (β-aminoethylether) N,N,N',N',-tetroaceticacid (EGTA), 10 μM guanosine 5'-triphosphate (GTP), and ~2×10^6 counts/minutes of [α-^32 P]dATP for 20 minutes at 30° C. The reaction was stopped by adding 40 μl of a solution containing 2% sodium dodecyl sulfate (SDS), 45 mM ATP, 1.3 mM cAMP, and [^3 H]dcAMP (~4000 count/min) and by boiling for 2 minutes.

[2] = ISO at 0.1 μM in the presence of 1 μM PIA
[3] = Table 2, 0.2 μM ISO, 2 μM PIA, 0.2 μM DPCPX added sequentially every 8-10 min, maximum responses, mean ± SE, N = 6

- increase in adenylyl cyclase activity [1, 2]: 23%
- increase in adenylyl cyclase activity ([1]; ISO at 0.1 μM, in the absence of PIA): 88%
- ISO-induced increase in adenylyl cyclase activity ([1]; ISO at 0.1 μM, with PIA and DPCPX at 0.1 μM): 70%
SMILES: CC(C)NCC(O)c1ccc(O)c(O)c1 (stereo not shown) [ISO, isoproterenol]
- decrease in TR (rat ventricular myocytes; [2]): 10%
- increase in +dL/dtmax (rat ventricular myocytes; [2]): 70%
- increase in -dL/dtmax (rat ventricular myocytes; [2]): 93%
- increase in LC (rat ventricular myocytes; [2]): 44%
- inhibition at 0.2 µM (rat ventricular myocytes; read-out: decrease in DS): 30%
- inhibition at 0.2 µM (rat ventricular myocytes; read-out: decrease in TPS): 14%
- inhibition at 0.2 µM (rat ventricular myocytes; read-out: decrease in TR): 39%
- activation at 0.2 µM (rat ventricular myocytes; read-out: increase in +dL/dtmax): 63%
- activation at 0.2 µM (rat ventricular myocytes; read-out: increase in -dL/dtmax): 100%
- activation at 0.2 µM (rat ventricular myocytes; read-out: increase in LC): 61%
- +dL/dtmax, maximal rate of shortening (rat ventricular myocytes; [3]): 260 ± 13 μm/msec
- -dL/dtmax, maximal rate of relaxation (rat ventricular myocytes; [3]): 180 ± 17 μm/msec
- DS, duration of shortening (rat ventricular myocytes; [3]): 263 ± 16 ms
- LC, maximum length change (shortening) with contraction (rat ventricular myocytes; [3]): 29 ± 2 μm
- TPS, time-to-peak shortening (rat ventricular myocytes; [3]): 103 ± 4 ms
- TR, time to 75% relaxation (rat ventricular myocytes; [3]): 210 ± 8 ms

From patent US5629298A, “Adenosine as a positive inotrop in the compromised heart” (University of Massachusetts Medical Center, priority 1995, dated 1997)
